Tested on: panel of breast cancer cell lines
Experiment: Compound A with targeted agents and chemotherapies, 72-hour in vitro proliferation assays
Assay type: cell-based
Details: 72-hour proliferation
[1] = AU565 cell line, compound A × partner
[2] = BT-20 cell line, compound A × partner
[3] = BT-474 cell line, compound A × partner
[4] = BT-549 cell line, compound A × partner
[5] = CAL-51 cell line, compound A × partner
[6] = CAL-85-1 cell line, compound A × partner
[7] = CAL-120 cell line, compound A × partner
[8] = CAL-148 cell line, compound A × partner
[9] = CAMA-1 cell line, compound A × partner
[10] = DU-4475 cell line, compound A × partner
[11] = EVSA-T cell line, compound A × partner
[12] = MCF7 cells, Compound A × partner agent
[13] = MDA-MB-175-VII cells, Compound A × partner agent
[14] = MDA-MB-231 cells, Compound A × partner agent
[15] = MDA-MB-361 cells, Compound A × partner agent
[16] = MDA-MB-436 cells, Compound A × partner agent
[17] = MDA-MB-453 cells, Compound A × partner agent
[18] = MDA-MB-468 cells, Compound A × partner agent
[19] = SK-BR-3 cells, Compound A × partner agent
[20] = SUM159PT cells, combination of compound A with the named agent
[21] = T47D cells, combination of compound A with the named agent
[22] = ZR-75-1 cells, combination of compound A with the named agent
[23] = ZR-75-30 cells, combination of compound A with the named agent

Compound: CO[C@H]1C[C@@H]2CC[C@@H](C)[C@@](O)(O2)C(=O)C(=O)N2CCCC[C@H]2C(=O)O[C@H]([C@H](C)C[C@@H]2CC[C@@H](OCCO)[C@H](OC)C2)CC(=O)[C@H](C)/C=C(\C)[C@@H](O)[C@@H](OC)C(=O)[C@H](C)C[C@H](C)/C=C/C=C/C=C/1C [Everolimus]
- Bliss Volume [1]: 5.68
- HSA volume [1]: 2.64
- Loewe Volume [1]: 3.01
- Synergy Score [1]: 3.02
- Bliss Volume [2]: 8.37
- HSA volume [2]: 8.23
- Loewe Volume [2]: 7.02
- Synergy Score [2]: 11.08
- Bliss Volume [3]: 3.26
- HSA volume [3]: −1.26
- Loewe Volume [3]: −2.71
- Synergy Score [3]: 2.41
- Bliss Volume [4]: 5.93
- HSA volume [4]: 8.22
- Loewe Volume [4]: 7.87
- Synergy Score [4]: 7.35
- Bliss Volume [5]: −2.55
- HSA volume [5]: 0.45
- Loewe Volume [5]: 0.41
- Synergy Score [5]: 1.34
- Bliss Volume [6]: 10.37
- HSA volume [6]: 14.41
- Loewe Volume [6]: 13.60
- Synergy Score [6]: 16.26
- Bliss Volume [7]: −2.79
- HSA volume [7]: −1.61
- Loewe Volume [7]: −1.62
- Synergy Score [7]: 0.53
- Bliss Volume [8]: 5.67
- HSA volume [8]: 9.58
- Loewe Volume [8]: 8.56
- Synergy Score [8]: 18.16
- Bliss Volume [9]: 10.06
- HSA volume [9]: 2.71
- Loewe Volume [9]: 3.20
- Synergy Score [9]: 7.90
- Bliss Volume [10]: 4.29
- HSA volume [10]: 1.94
- Loewe Volume [10]: 0.97
- Synergy Score [10]: 2.43
- Bliss Volume [11]: 10.56
- HSA volume [11]: −0.76
- Loewe Volume [11]: −1.22
- Synergy Score [11]: 1.85
- Bliss Volume (HCC38, compound A × partner): −6.70
- HSA volume (HCC38, compound A × partner): −1.96
- Loewe Volume (HCC38, compound A × partner): −2.56
- Synergy Score (HCC38, compound A × partner): 2.18
- Bliss Volume (HCC70, compound A × partner): 9.56
- HSA volume (HCC70, compound A × partner): 8.83
- Loewe Volume (HCC70, compound A × partner): 6.84
- Synergy Score (HCC70, compound A × partner): 11.30
- Bliss Volume (HCC1143, compound A × partner): 8.68
- HSA volume (HCC1143, compound A × partner): 8.45
- Loewe Volume (HCC1143, compound A × partner): 10.21
- Synergy Score (HCC1143, compound A × partner): 9.36
- Bliss Volume (HCC1569, compound A × partner): 2.35
- HSA volume (HCC1569, compound A × partner): 5.10
- Loewe Volume (HCC1569, compound A × partner): 4.65
- Synergy Score (HCC1569, compound A × partner): 3.45
- Bliss Volume (HCC1806, compound A × partner): 5.19
- HSA volume (HCC1806, compound A × partner): 2.88
- Loewe Volume (HCC1806, compound A × partner): 5.59
- Synergy Score (HCC1806, compound A × partner): 2.52
- Bliss Volume (HCC1937, compound A × partner): 1.96
- HSA volume (HCC1937, compound A × partner): 3.68
- Loewe Volume (HCC1937, compound A × partner): 4.63
- Synergy Score (HCC1937, compound A × partner): 4.89
- Bliss Volume (HCC1954, compound A × partner): 20.04
- HSA volume (HCC1954, compound A × partner): 23.41
- Loewe Volume (HCC1954, compound A × partner): 21.71
- Synergy Score (HCC1954, compound A × partner): 36.09
- Bliss Volume (HCC2218, compound A × partner): −0.77
- HSA volume (HCC2218, compound A × partner): −0.63
- Loewe Volume (HCC2218, compound A × partner): −2.03
- Synergy Score (HCC2218, compound A × partner): 3.37
- Bliss Volume (HDQ-P1, compound A × partner): 6.97
- HSA volume (HDQ-P1, compound A × partner): −1.39
- Loewe Volume (HDQ-P1, compound A × partner): 6.48
- Synergy Score (HDQ-P1, compound A × partner): 2.04
- Bliss Volume (HMC-1-8, compound A × partner): 9.19
- HSA volume (HMC-1-8, compound A × partner): 5.60
- Loewe Volume (HMC-1-8, compound A × partner): 5.97
- Synergy Score (HMC-1-8, compound A × partner): 9.41
- Bliss Volume (JIMT-1, compound A × partner): 5.29
- HSA volume (JIMT-1, compound A × partner): 2.41
- Loewe Volume (JIMT-1, compound A × partner): 1.96
- Synergy Score (JIMT-1, compound A × partner): 1.56
- Best CI (KPL-1, compound A × partner): 0.45
- Best CI Level (KPL-1, compound A × partner): 95
- Bliss Volume (KPL-1, compound A × partner): 2.85
- HSA volume (KPL-1, compound A × partner): 5.14
- Loewe Volume (KPL-1, compound A × partner): 4.93
- Synergy Score (KPL-1, compound A × partner): 6.00
- Bliss Volume [12]: 6.88
- HSA volume [12]: 7.73
- Loewe Volume [12]: 6.93
- Synergy Score [12]: 9.72
- Bliss Volume [13]: 9.10
- HSA volume [13]: 4.72
- Loewe Volume [13]: 4.62
- Synergy Score [13]: 10.26
- Bliss Volume [14]: 0.30
- HSA volume [14]: 2.64
- Loewe Volume [14]: 3.33
- Synergy Score [14]: 2.06
- Bliss Volume [15]: 5.72
- HSA volume [15]: 4.93
- Loewe Volume [15]: 3.91
- Synergy Score [15]: 8.70
- Bliss Volume [16]: 2.45
- HSA volume [16]: 4.01
- Loewe Volume [16]: 3.66
- Synergy Score [16]: 2.25
- Bliss Volume [17]: 3.87
- HSA volume [17]: 0.04
- Loewe Volume [17]: −0.98
- Synergy Score [17]: 5.75
- Bliss Volume [18]: 11.63
- HSA volume [18]: 9.14
- Loewe Volume [18]: 7.97
- Synergy Score [18]: 15.60
- Bliss Volume [19]: 7.76
- HSA volume [19]: 3.46
- Loewe Volume [19]: 2.55
- Synergy Score [19]: 4.58
- Bliss Volume [20]: 0.61
- HSA volume [20]: 1.27
- Loewe Volume [20]: 0.66
- Synergy Score [20]: 1.12
- Bliss Volume [21]: −0.21
- HSA volume [21]: 2.87
- Loewe Volume [21]: 2.69
- Synergy Score [21]: 3.70
- Bliss Volume [22]: 3.52
- HSA volume [22]: 5.12
- Loewe Volume [22]: 4.67
- Synergy Score [22]: 5.68
- Bliss Volume [23]: 3.82
- HSA volume [23]: 4.76
- Loewe Volume [23]: 4.25
- Synergy Score [23]: 7.22

Reference: patent US11931424B2, “Combination MCL-1 inhibitors with anti-body drug conjugates” (Gilead Sciences, Inc., priority 2021, dated 2024)
